Data on one compound can be found in patent publication US8853227B2, “Methotrexate adjuvants to reduce toxicity and methods for using the same” (Tosk, Incorporated, priority 2008, dated 2014).

Test [1] is described as follows: Mouse Study I (protection from MTX-induced weight loss, LPS/MTX model). It counts as in vivo, C57BL/6 mice. The following applies: 10 or 30 mg/kg ip 3 hr before and after MTX, LPS+MTX; p<0.004 (10 mg/kg), p<0.0005 (30 mg/kg) vs LPS+MTX. On the procedure: C57BL/6 mice (10 animals/treatment group) were dosed on Day 1 with LPS (5 μg, i.p.). On Day 2, the animals were treated with 200 mg/kg MTX+10 or 30 mg/kg TK-112690 3 hr before and 3 hr after the MTX treatment. On Day 3, the animals were dosed MTX 100 mg/kg+10 or 30 mg/kg TK±3 hr. On day 8, the Day 8-Day 1 weight was determined and results subject to ANOVA. Group 1=saline alone, Group 2=MTX alone, Group 3=LPS alone, Group 4=MTX+LPS, Group 5=10 mg/kg TK-112690+MTX+LPS or Group 6=30 mg/kg TK-112690+MTX+LPS.
This mouse model is modified from a published procedure (de Koning et al., Int Immunol 18: 941 (2006)). Mice are treated on day one with a single intraperitoneal (ip) dose of lipopolysaccharide (LPS), followed by two consecutive days with 200 and 100 mg/kg ip methotrexate, respectively. Controls include saline alone for days 1, 2, and 3, saline on day 1 plus MTX on days 2 and 3 and LPS on day one with saline injection on days 2 and 3. Experimental groups are given LPS on day one and 10 or 30 mg/kg, TK-112690, a representative 2,2′-anhydropyrimidine test article, ip 3 hours before, and 3 hours after, methotrexate injection on days 2 and 3. Animal weights are measured every day after the first injection with experiment termination five days after the second methotrexate injection (day 8). Weight loss is representative of MTX-induced toxicity, and one aspect of MTX-induced mucositis. […]

The test system of another test is CCRF-CEM cells. In words: Cell Culture Study I (MTX cytotoxicity, alamarBlue). The format is cell-based, human. On the procedure: In this study, CCRF-CEM cells purchased from ATCC were cultured and then 12 tubes containing approximately 10^6 cells each treated for 72 hours with media (Group1), MTX 0.03 μM (Group2), MTX+Leucovorin 1 μM (Group3), MTX+Leucovorin 10 μM (Group4), MTX+Leucovorin 100 μM (GroupS), MTX+TK-112690 1 μM (Group6), MTX+TK-112690 10 μM (Group7) and MTX+TK-112690 100 μM (Group8). […] Viability was measured as percent reduction of alamarBlue absorbance.
The tumor cell line CCR-CEM (human T-cell acute lymphoblastic leukemia) is obtained from American Type Culture Collection (CRL-1593.2) and cultured in accordance with the product information sheet with the following exceptions: 55.3 cm^2 Petri dishes are used instead of 75 cm^2 culture flasks, and 1% penicillin-streptomycin solution (HyClone SV30010) and 1% GlutaMAX™ (Gibco 35050) are added to the culture medium.
TK-112690, the representative 2,2′-anhydropyrimidine test article, is dissolved in 40% DMSO, sterile filtered then diluted with sterile distilled water to obtain initial working solutions of 10, 100 and 1000 μM. In testing, a 100 fold dilution is made in culture media to give final assay concentrations of 0.1, 1.0 and 10.0 μM. MTX (SAFC Biosciences M8407) is dissolved in sterile distilled water and 5 N NaOH then sterile filtered. The final pH of the stock solution is 7.8 and working solutions are made with sterile distilled water for final assay concentrations of 30, 3.0, 0.3, 0.03 and 0.003 μM. Leucovorin (Sigma F-7878) is dissolved in sterile distilled water, sterile filtered and diluted with sterile distilled water for final assay concentrations of 0.1, 1.0 and 10.0 μM.
Aliquots of 100 μL of cell suspension are plated in 96 well microtiter plates (Corning costar 3595) and placed in an atmosphere of 5% CO2 at 37° C. (Fisher Scientific Isotemp 3500 CO2 Incubator). After 24 hours, 100 μL of growth medium [RPMI-1640 w/L-glutamine (Cambrex 12-702Q) fortified with sodium pyruvate (HyClone SH30239.01), fetal bovine serum (SAFC Biosciences 12107C) and HEPES buffer (Gibco 15630)] and 2 μL of test solution or vehicle are added respectively per well and the plates incubated for an additional 72 hour incubation. MTX is evaluated at concentrations of 0.003, 0.03, 0.30 and 3.0 μM alone or in combination with either a 2,2′-anhydropyrimidine test article or Leucovorin at concentrations of 0.1, 1.0, 10.0 μM. At the end of incubation, the efficacy of anti-cell proliferation is determined by optical absorbance at A=570 and 600 nm [Spectramax 250 (Molecular Devices)] in accordance with the standard alamarBlue™ (Biosource) protocol.
Group 1 is the cell control (media treated). Group 2 corresponds to cells treated with 0.03 μM MTX. Group 3 are cells treated with 1.0 μM Leucovorin. Group 4 are cells treated with 0.1 μM Leucovorin. […]
For orientation: Resazurin is reduced to fluorescent resorufin, in cell work by metabolically active cells.

Turning to `Cc1cn2c(nc1=O)O[C@H]1[C@H](O)[C@@H](CO)O[C@H]12` [TK-112690, 2,2′-anhydro-5-methyluridine], the “protection from MTX-induced weight loss (Day 8-Day 1 mean weight change)” value in test [1] is “highly significant”. For the same compound, in the test on CCRF-CEM cells (0.03 μM MTX + TK-112690, 72 hours, p<0.844, 0.918, 1.000), the “cell viability, MTX+TK-112690 versus MTX alone” value was “not different”. Also, in the test on CCRF-CEM cells (without MTX, 72 hours), the “cell viability, test article alone versus control” value was “not statistically different than control”.
